Type in all cases: in vivo
Data set [1] relates to Scirpus juncoides. Kind of data set: Herbicidal activity in paddy rice (transplanted), run-in method: Scirpus juncoides. As to conditions: 25 days after application. The source says:
(§1) A synergistic effect is always present when the activity of the active ingredient combination I and II, and/or III, and/or IV and/or V exceeds the total of the activity of the active ingredients applied singly.
(§2) The expected herbicidal activity Ae for a given combination of two herbicides can be calculated as follows (cf. COLBY, S. R., “Calculating synergistic and antagonistic response of herbicide combinations”, Weeds 15, pages 20-22, 1967):
(§3) X=per cent herbicidal activity in the treatment with the compound of formula I using a rate of application of p kg per hectare in comparison with untreated control (=0%).
(§4) Y=per cent herbicidal activity in the treatment with the compound of formulae II to V using a rate of application of q kg per hectare in comparison with untreated control.
(§5) Ae=expected herbicidal activity (per cent herbicidal activity comparison with the untreated control) after treatment with the compounds of formulae I and II to V at a rate of application of p+q kg of active ingredient per hectare.
(§6) If the activity actually observed exceeds the expected value Ae, synergism is present.
(§7) Herbicidal Activity in Paddy Rice (transplanted):
(§8) The test plants are sown or planted in standard soil in shallow plastic containers under greenhouse conditions. The containers are then filled with water to soil level. After 3 days, the water level is raised by 2 cm, and the test substances are applied in the form of an aqueous suspension (Formulation Example F7, c)) by the run-in method (application into the water). The test plants are then grown on in the greenhouse under optimal conditions. 25 days after application, the test is evaluated using a % scale (100%=complete damage, 0%=no activity).
(§9) Test plants: transplanted rice, Sagittaria pygmaea, Scirpus juncoides and Heterantera.

In data set [2] the test system is Heterantera. Kind of data set: Herbicidal activity in paddy rice (transplanted), run-in method: Heterantera. As to conditions: 25 days after application.
Text: as §1, §2, §3, §4, §5, §6, §7, §8, §9

The subject of data set [3] is transplanted rice. Briefly: Herbicidal activity in paddy rice (transplanted), run-in method: crop plant tolerance. The protocol: as §7, §8, §9
For data set [4], the system named is Sagittaria pygmaea. Briefly: Herbicidal activity in paddy rice (transplanted), run-in method: Sagittaria pygmaea. As to conditions: 25 days after application.
Text: as §1, §2, §3, §4, §5, §6, §7, §8, §9
Table B1: Experiments in transplanted rice with Sagittaria pygmaea, using the run-in method

Setting [5] is: 60 g of active ingredient/ha, run-in method, 25 days after application.
[6] abbreviates: 250 g of active ingredient/ha, run-in method, 25 days after application.
[7] abbreviates: 500 g of active ingredient/ha, run-in method, 25 days after application.

Data on 8 molecules can be found in patent publication US6403532B1, “Herbicidal synergistic composition, and method of controlling weeds” (Syngenta Crop Protection, Inc., priority 1995, dated 2002).

Molecules are shown by their SMILES.

For `CCOC(=O)c1cnn(C)c1S(=O)(=O)NC(=O)Nc1nc(OC)cc(OC)n1` [1.2], the “Weed Scirpus junc.” value turned out to be 0% in data set [1] (15 g of active ingredient/ha) and 20% in data set [1] (30 g of active ingredient/ha). Besides, the “Weed Heterantera” value in data set [2] (8 g of active ingredient/ha), in data set [2] (15 g of active ingredient/ha) and in data set [2] (30 g of active ingredient/ha) was 0% throughout. The “Crop plant transplanted rice” value is 0% in data set [3] (8 g of active ingredient/ha, run-in method, 25 days after application); 0% in data set [3] (15 g of active ingredient/ha, run-in method, 25 days after application); 0% in data set [3] (30 g of active ingredient/ha, run-in method, 25 days after application).
For `COCCOc1ccccc1S(=O)(=O)NC(=O)Nc1nc(OC)nc(OC)n1` [1.3], the results for the “Weed Sagittaria pygm.” value in data set [4] (6 g of active ingredient/ha), in data set [4] (12 g of active ingredient/ha) and in data set [4] (24 g of active ingredient/ha) were 70%, 75% and 94%, respectively. Moreover, the “Crop plant transplanted rice” value in data set [3] (6 g of active ingredient/ha, run-in method, 25 days after application) is on record as 0%; in data set [3] (12 g of active ingredient/ha, run-in method, 25 days after application), 0%; in data set [3] (24 g of active ingredient/ha, run-in method, 25 days after application), 15%.
With `CCCOCCN(C(=O)CCl)c1c(CC)cccc1CC` [2.3, 2-chloro-2′,6′-diethyl-N-(2-propoxyethyl)acetanilide], the “Weed Heterantera” value is listed as 0% in data set [2] (60 g of active ingredient/ha) and 80% in data set [2] (375 g of active ingredient/ha). Moreover, the “Weed Sagittaria pygm.” value turned out to be 25% in data set [4] (250 g of active ingredient/ha), 55% in data set [4] (375 g of active ingredient/ha) and 50% in data set [4] (500 g of active ingredient/ha). The “Crop plant transplanted rice” value in data set [3] (setting [5]) amounted to 0%; in data set [3] (setting [6]) it was 0%; in data set [3] (375 g of active ingredient/ha, run-in method, 25 days after application), 0%; in data set [3] (setting [7]), 0%.
For `CCCCOC(=O)[C@@H](C)Oc1ccc(Oc2ccc(C#N)cc2F)cc1` [3.1, butyl (R)-2-[4-(4-cyano-2-fluorophenoxy)phenoxy]propionate], the “Weed Scirpus junc.” value in data set [1] (125 g of active ingredient/ha) and in data set [1] (250 g of active ingredient/ha) was 0% each time. Further, the “Weed Heterantera” value in data set [2] (125 g of active ingredient/ha) and in data set [2] (250 g of active ingredient/ha) was 0% in each case. For the same molecule, the “Weed Sagittaria pygm.” value in data set [4] (125 g of active ingredient/ha) and in data set [4] (250 g of active ingredient/ha) was 0% each time. The “Crop plant transplanted rice” value in data set [3] (125 g of active ingredient/ha, run-in method, 25 days after application) was found to be 0%; in data set [3] (setting [6]) it was 0%.
`CN(C(=O)COc1nc2ccccc2s1)c1ccccc1` [2.1, 2-(1,3-benzothiazol-2-yloxy)-N-methylacetanilide]: the “Weed Scirpus junc.” value in data set [1] (125 g of active ingredient/ha) is 0%; in data set [1] (250 g of active ingredient/ha), 65%; in data set [1] (500 g of active ingredient/ha) it was 94%. In addition, the entries for the “Weed Heterantera” value in data set [2] (500 g of active ingredient/ha) and in data set [2] (1000 g of active ingredient/ha) were 40% and 50%, respectively. The “Weed Sagittaria pygm.” value in data set [4] (500 g of active ingredient/ha) and in data set [4] (1000 g of active ingredient/ha) was 0% each time. Also, the “Crop plant transplanted rice” value in data set [3] (in vivo) came to 0%.
On to `CCC(=O)Nc1ccc(Cl)c(Cl)c1` [2.2, 3′,4′-dichloropropionanilide], for which the “Weed Scirpus junc.” value is given as 0% in data set [1] (500 g of active ingredient/ha) and 35% in data set [1] (1000 g of active ingredient/ha). Moreover, in data set [2] (1000 g of active ingredient/ha), the “Weed Heterantera” value came out at 0%. Moreover, the “Weed Sagittaria pygm.” value in data set [4] (500 g of active ingredient/ha) and in data set [4] (1000 g of active ingredient/ha) was 0% throughout. The “Crop plant transplanted rice” value is on record as 0% in data set [3] (setting [7]) and 0% in data set [3] (1000 g of active ingredient/ha, run-in method, 25 days after application).
In the case of `COc1cc(OC)nc(Sc2cccc3c2C(=O)OC3C)n1` (stereo not shown) [I], the “Weed Scirpus junc.” value in data set [1] (60 g of active ingredient/ha) is 0%; in data set [1] (120 g of active ingredient/ha), 50%; in data set [1] (240 g of active ingredient/ha), 92%. Besides, the “Weed Heterantera” value in data set [2] (60 g of active ingredient/ha) was found to be 0%; in data set [2] (120 g of active ingredient/ha), 0%; in data set [2] (240 g of active ingredient/ha), 70%. The “Weed Sagittaria pygm.” value in data set [4] (60 g of active ingredient/ha), in data set [4] (120 g of active ingredient/ha) and in data set [4] (240 g of active ingredient/ha) was 0% in each case. Further, the “Crop plant transplanted rice” value in data set [3] (setting [5]) was determined as 0%; in data set [3] (120 g of active ingredient/ha, run-in method, 25 days after application) it was 0%; in data set [3] (240 g of active ingredient/ha, run-in method, 25 days after application), 0%.
Turning to `Clc1cc(Cl)nc(-c2ccccc2)n1` [VI, 4,6-dichloro-2-phenylpyrimidine], the “Weed Heterantera” value in data set [2] (125 g of active ingredient/ha) was found to be 0%. In data set [4] (125 g of active ingredient/ha), the “Weed Sagittaria pygm.” value was found to be 0%. Further, the “Crop plant transplanted rice” value in data set [3] (in vivo) was 0%.
